Row | melting point | Structure (SMILES)
1 | 116 to 118 °C | Cc1ccc(S(=O)(=O)OCCn2c([N+](=O)[O-])cnc2C=CN(C)C)cc1
2 | 192 to 193 °C | Cc1nn(-c2ccccn2)c2c1c(=O)c1ccccc1n2C
3 | 56 °C | CCOC(=O)C(C)Oc1ccc(Oc2cc3cc(Cl)ccc3nc2Cl)cc1 (stereo not drawn)
4 | 128 to 130 °C | CC(CS)C(=O)N1CCCC1C(=O)NC(C)C(=O)O (stereo not drawn)
5 | 175 to 177 °C | NC(=S)Nc1ccccc1-c1ccccc1F
6 | 92 to 93 °C | FC(F)(F)Oc1ccc2c(c1)nc(/C=C/c1ccccc1)n2-c1ccccn1
7 | 132 to 134 °C | c1ccc(C2OC3(CCOCC3)c3ccccc32)cc1 (stereo not drawn)
8 | 196 to 201 °C | CCCCN(CCCC)c1ccc(C=CC2=CC(=CC=CC3=C(C#N)C(=C(C#N)C#N)OC3(C)C(F)(F)F)CC(C)(C)C2)c(OC)c1 (stereo not drawn)
9 | 57 °C | COc1cc(I)ccc1-c1ccccc1
10 | 182 to 184 °C | Cc1c(C=NO)c2ccccc2n1-c1ccc(O)c(F)c1
11 | 120 to 122 °C | Nc1ccc(OCC(=O)N2CC=C(c3ccc(F)cc3)CC2)cc1
12 | 59.5 °C | CC(C)ON=C(C(=O)O)c1ccccc1
13 | 137 to 139 °C | c1cc(-n2cccc2)cc(-n2cnc3cc(-c4ccco4)ccc32)c1
14 | 145 °C | Fc1cccc(F)c1Cn1c(-c2c(F)cccc2F)nc2ccccc21
15 | 112 to 116 °C | CCOS(=O)(=O)c1ccc(-c2ccc(CCl)cc2)cc1
16 | 149 °C | NC(=O)c1nn(-c2ccccc2)c2ccccc12
17 | 88 to 90 °C | COC(=O)C(Cc1ccc(OCCN(C)c2nc3ccccc3o2)cc1)Oc1ccc(Cl)cc1 (stereo not drawn)
18 | 105 to 106 °C | CC[C@H](C)C(OCc1ccccc1)[C@H]1[C@H]([N+](=O)[O-])[C@H](c2ccccc2)N[C@@H]1C(=O)NCCCCCC(=O)O (stereo partly drawn)
19 | 72 °C | COC(=O)CSc1cccc(CN)c1
20 | 126 to 127 °C | CCOC(=O)c1[nH]c2ccc(Cl)cc2c1N
21 | 156 to 158 °C | CCCc1c(OCCCOc2ccc(-c3cc[nH]n3)c(OC)c2CCC)ccc2c1OC(C(=O)O)CC2 (stereo not drawn)
22 | 238 °C | Nc1ccc(Nc2c(NCc3ccccc3)cc(C(=O)O)cc2S(=O)(=O)Nc2ccc(N)cc2)cc1
23 | 82.5 °C | CC1OC(Cn2cncn2)(c2ccc(Cl)cc2Cl)OC1C (single isomer, unassigned; (-))

Row | melting point | Structure (SMILES)
24 | 84 °C | CCCCCCCCCCC(O)COc1ccc(N2CCS(=O)(=O)CC2)cc1 (stereo not drawn)
25 | 239 to 240 °C | COc1cc(OC)c2c(C)cc(=O)[nH]c2c1
26 | 141 °C | COc1ccc(-c2cc(=S)n(CC=Cc3ccc(F)cc3F)nc2-c2ccc(OC)cc2)cc1
27 | 132 to 133 °C | COc1ccc(C(=O)Cc2c(Cl)cncc2Cl)c2c(CC(=O)OCc3ccccc3)coc12
28 | 70 to 71 °C | CCc1c(O)c(C(C)=O)c(C)c2c1OC(C)(C)CC2C (stereo not drawn)
29 | 155 to 156 °C | CN1CCN(C(=O)/C=C/CSc2nc(N)cc(Cl)n2)CC1
30 | 133 to 134 °C | OCC(O)CNCC(O)C(O)C(O)C(O)CO (stereo not drawn)
31 | 157 to 158 °C | CNC(=O)n1nc(Oc2ccc([N+](=O)[O-])cc2C(F)(F)F)c(Cl)c1C
32 | 127 °C | N#Cc1cc(F)c(NC(=O)C=C(N)C(F)(F)F)cc1F
33 | 40 to 52 °C | CC(=O)C(C(C)=O)c1ccccc1
34 | 194 to 204 °C | CS(=O)c1onc(-c2ccccc2)c1-c1ccc(S(N)(=O)=O)cc1 (stereo not drawn)
35 | 174 to 177 °C | CC(C(=O)N(C)c1ccccc1)n1c(-c2ccc(Cl)cc2)nc2cccnc21 (stereo not drawn)
36 | 95 °C | Cc1noc(-c2c(C)nc(C#Cc3ccccc3)n2C)n1
37 | 168 to 169 °C | N#Cc1c(N2CCCCC2)cc(-c2ccc3ccc4cccc5ccc2c3c45)c2c1Cc1ccccc1-2
38 | 35.5 to 36.9 °C | CC=COCCC[C@H]1CC[C@H](c2cccc(F)c2F)CC1
39 | 129 to 131 °C | O=C1N=C(N2CCOCC2)SC1Cc1cccc(-c2ccc(O)c(C34CC5CC(CC(C5)C3)C4)c2)c1 (stereo not drawn)
40 | 141 to 142 °C | CCOC(=O)Cn1c(-c2ccc(Cl)c(Cl)c2)nc2cccnc21
41 | 189 to 190 °C | CC(C)n1c(CO)c(-c2ccc(F)cc2)c(-c2ccccc2)c1C(N)=O
42 | 150 to 151 °C | CC(=O)OC(C)(C)c1nnc(-c2ccc3ncn(-c4ccc(OC(F)(F)F)cc4)c3c2)o1
43 | 192 to 193 °C | CC(C)c1c(CC[C@@H]2C[C@@H](O)CC(=O)O2)n(-c2ccc(F)cc2)c(=O)c2ccccc12
44 | 153 to 156 °C | O=C(NCc1cccc([N+](=O)[O-])c1)Nc1ccccc1
45 | 137 to 138 °C | O=C1N[C@H](Cc2ccc(CC(F)(F)C(F)(F)F)cc2)[C@H](c2cccc(Cl)c2)O1 (racemic)
46 | 160 to 163 °C | O=C(Nc1ccc(C(CC2CCCC2)C(=O)O)cc1)c1cccnc1 (stereo not drawn)

Row | melting point | Structure (SMILES)
47 | 165 to 167 °C | Clc1ccc(-c2cc(C3CCN(CCCc4ccccc4)CC3)n[nH]2)cc1
48 | 165 to 166 °C | Nc1ncnc2c1c(-c1ccc(Oc3ccccc3)cc1)cn2C1CCOC1 (stereo not drawn)
49 | 173 to 175 °C | Cc1ccc(Cc2cnc(NCCCNc3ccc(Cl)cn3)[nH]c2=O)cn1
50 | 160 to 162 °C | CC(C)CN(Cc1ccccc1)c1ncnc2nc[nH]c12
51 | 189 to 190 °C | CN1C(=O)c2cnc(-c3ccccc3)nc2N(C(=O)CCl)c2ccccc21
52 | 156 to 173 °C | COC(=O)/C=C/c1ccc(NC(=O)CCCBr)nc1
53 | 205 to 207 °C | Cc1oc(-c2ccccc2)nc1CCOc1ccc(C[C@@H](C(=O)O)N2CCN(S(=O)(=O)c3ccc([N+](=O)[O-])cc3)CC2)cc1
54 | 189 to 192 °C | N#Cc1cc(-c2ccoc2)c2ccc(COc3cc(F)cc(-c4cc(F)cc(F)c4)c3)cc2n1
55 | 156 to 158 °C | CC(=O)c1nc(-c2ccc(C)nc2Cl)[nH]c1C
56 | 103 to 104 °C | COCC(C1CC1)n1cc(Cl)nc(Nc2cc(C)c(OC(F)F)nc2C)c1=O (stereo not drawn)
57 | 127 °C | COC(=O)C1OC(OC(=O)C(C)C)C(OC(=O)C(C)C)C(OC(=O)C(C)C)C1OC(=O)C(C)C (stereo not drawn)
58 | 215 to 217 °C | Cn1c(=O)c(-c2c(Cl)cccc2Cl)cc2cnc(Nc3cccc(CO)c3)nc21
59 | 188 to 189 °C | Nc1ccc2c(c1)OC1(CC1)C2=O
60 | 215 to 216 °C | CC(C(=O)NCC(F)(F)C(F)(F)F)C(=O)NC1C(=O)Nc2cc(F)ccc2OC1C (stereo not drawn)
61 | 272 to 273 °C | CCc1[nH]n(C2CCCC2)c2nc(-c3ccccc3O)nc(=O)c1-2
62 | 152 to 155 °C | COc1ccc(C)cc1NC(=O)Nc1ccc(N2CCN(C(=O)Nc3ccc(CO)cc3Cl)CC2)cc1
63 | > 250 °C | COc1ccc2cc(-c3ccc(Br)cc3)[nH]c(=O)c2c1
64 | 213 to 214 °C | CC(C)(C)c1cc(C(=O)O)ccc1OCc1ccccc1
65 | 180 to 181 °C | COc1ccc(C(=O)N2c3ccccc3[C@H](N(C)c3ccccc3)C[C@@H]2C)cc1OC (relative stereo)
66 | 183 to 184 °C | COc1ccc(Oc2c(Br)cc(C=O)cc2Br)cc1Cc1ccc(=O)[nH]n1
67 | 89 to 92 °C | CCCOc1ccc(-c2ccc(-c3ccccc3Cl)n2Cc2ccc(OCCO)c(N)n2)cc1
68 | 192 to 194 °C | CC(C(N)=O)n1nc(-c2cc(C(C)(C)C)c(O)c(C(C)(C)C)c2)c2cccnc21 (stereo not drawn)
69 | 285 to 287 °C | CCOC(=O)c1c[nH]c2c(C#N)c(CCCNC)nn2c1=O

Row | melting point | Structure (SMILES)
70 | 160 to 166 °C | O=C1C(c2cccc(O)c2)CCCCN1Cc1ccccc1 (stereo not drawn)
71 | 145 to 146 °C | Cn1nc(-c2ccncc2)nc1-c1ccccn1
72 | 181 to 183 °C | O=C(NCc1ccccc1)c1ccnc(NC(=O)c2ccc(C(F)(F)F)cc2)c1
73 | 233 to 235 °C | CC1(C)CC2(NC(=O)NC2=O)c2ccccc2O1 (stereo not drawn)
74 | 156 to 159 °C | O=C1CC2(CCO1)c1ccccc1Oc1ccccc12
75 | 64 °C | N#CCCCCCCc1nc(-c2ccc(Cl)cc2)c(-c2ccc(Cl)cc2)o1
76 | 69 to 73 °C | CCc1nc2ccc(N=C=S)cc2s1
77 | 169 to 170 °C | c1ccc(-n2cc3c(n2)-n2cccc2C3(Cc2ccncc2)Cc2ccncc2)cc1
78 | 285 to 288 °C | Cc1[nH]c(=O)ccc1-c1cccc(O)c1
79 | 135 to 137 °C | CC1=C(S(=O)(=O)c2ccc(C)cc2)C(c2ccc(C)cc2)C(C#N)=C(CC(C)C)N1 (stereo not drawn)
80 | 52 to 53 °C | O=C(NC(Cc1ccccc1)C(=O)O)c1ccccc1O (stereo not drawn)
81 | 101 to 102 °C | CCC(=O)Oc1cc2c(s1)CCN(C(C(=O)C1CC1)c1ccccc1F)C2 (stereo not drawn)
82 | 186 to 196 °C | CN(CC(=O)N[C@@H](CCC(N)=O)C(N)=O)C(=O)OCc1ccccc1
83 | 110 °C | c1ccc(-n2nnc3ccc(Cn4ccnc4)cc32)cc1
84 | 132 to 134 °C | CCOC(=O)N1CCN(c2nc(N)ccc2[N+](=O)[O-])CC1
85 | 138 to 140 °C | COc1cc(OCCCN2CCN(c3nn(C(=O)c4ccccc4)c4cc(F)ccc34)CC2)ccc1C(C)=O
86 | 157 to 158 °C | Cc1cc(-c2cc(CO)c(=O)n(Cc3ccc(Cl)cc3)n2)ccc1F
87 | 172 to 173 °C | CC(=O)NC[C@H]1CN(c2cc(F)c(N3CCN(C(=O)COCc4ccccc4)CC3)c(F)c2)C(=O)O1
88 | 209 to 210 °C | O=Cc1cc2ccc3c4ccccc4ccc3c2s1
89 | 210 to 213 °C | OCc1ccc(-c2ccc3nnn(Cc4ccc(F)cc4)c3n2)cc1
90 | 108 to 109 °C | Cc1ccccc1-c1ccc2ccccc2c1C(=O)N(C)C
91 | 80 to 81 °C | CCOC(=O)c1c(C)nn(-c2ccccn2)c1N
92 | 109 °C | CCC(CC)n1cc(C)nc(Nc2c(C)cc(C)cc2C)c1=O

Row | Structure (SMILES) | melting point
93 | CCCCNc1cc(Cl)c2c(c1)C(c1ccccc1F)=NC(C)(C)C(=O)N2C | 113 to 115 °C
94 | Cc1nnc(CO)n1-c1ccc(Cl)cc1C(=O)c1ccccc1Cl | 194 to 195 °C
95 | C#CC(CC)(CC)NC(N)=O | 108 °C
96 | O=C(NC1CN2CCC1CC2)c1cccc2oc(-c3ccc(Cl)cc3)nc12 (stereo not drawn) | 194 to 196 °C
97 | CC=CC(=O)CS(=O)(=O)C(c1ccc(Cl)cc1)c1ccc(Cl)cc1 | 114 to 116 °C
98 | CN(C)C1(c2cccs2)CC=C(c2[nH]c3ccccc3c2CCc2ccncc2)CC1 (stereo not drawn) | 189 to 193 °C
